Laboratory results taken from publication PMC11375794, “Discovery of new Hsp90–Cdc37 protein–protein interaction inhibitors: in silico screening and optimization of anticancer activity” (RSC Advances, 2024).

Experiments:
[1] = biological target: T1, full-length Hsp90β (Homo sapiens, UniProt P08238); experiment: Microscale thermophoresis (MST) binding to Hsp90β; settings: full-length Hsp90β, absence of Cdc37
T1 construct: For the protein expression of full-length Hsp90β, we received plasmids as a kind gift; made in house; host or cells: Escherichia coli strain Rosetta
T1 sequence (P08238 whole entry): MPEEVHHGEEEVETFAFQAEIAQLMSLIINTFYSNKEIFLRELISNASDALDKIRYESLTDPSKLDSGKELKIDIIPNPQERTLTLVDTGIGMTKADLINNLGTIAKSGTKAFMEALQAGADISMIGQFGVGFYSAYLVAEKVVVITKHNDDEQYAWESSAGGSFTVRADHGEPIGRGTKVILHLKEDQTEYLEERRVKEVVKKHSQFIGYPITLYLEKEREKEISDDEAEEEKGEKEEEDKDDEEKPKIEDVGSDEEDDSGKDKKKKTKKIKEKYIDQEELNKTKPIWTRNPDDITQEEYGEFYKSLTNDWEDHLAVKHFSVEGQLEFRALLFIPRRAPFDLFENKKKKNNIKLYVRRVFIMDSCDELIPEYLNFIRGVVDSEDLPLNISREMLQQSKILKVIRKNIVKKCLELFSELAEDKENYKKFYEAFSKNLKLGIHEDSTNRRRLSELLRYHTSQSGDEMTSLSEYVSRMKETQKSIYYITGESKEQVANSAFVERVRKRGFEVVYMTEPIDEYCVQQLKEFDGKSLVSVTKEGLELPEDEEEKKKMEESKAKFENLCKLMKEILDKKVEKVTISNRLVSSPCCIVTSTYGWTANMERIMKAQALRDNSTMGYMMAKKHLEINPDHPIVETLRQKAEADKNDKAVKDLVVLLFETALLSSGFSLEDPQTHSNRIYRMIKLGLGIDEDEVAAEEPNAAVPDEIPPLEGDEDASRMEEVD
Description: For the protein expression of full-length Hsp90β, we received plasmids as a kind gift from Dr Asta Zubriené at the Institute of Biotechnology, Vilnius University, Lithuania. Hsp90β, tagged with N-terminal 6×His-tag, was expressed in Escherichia coli strain Rosetta. The cells were cultured in LB media supplemented with kanamycin (50 μg mL^−1) and chloramphenicol (34 μg mL^−1) at 37 °C, and protein expression was initiated with 0.5 mM isopropyl β-D-1-thiogalactopyranoside (IPTG) when the OD600 reached 0.8. Following induction, the cells were incubated for 16 hours at 18 °C before being harvested by centrifugation. The cells were resuspended in a lysis buffer containing 40 mM potassium phosphate pH 8.0, 400 mM KCl, 10 mM imidazole, and protease inhibitors (Sigma), and then lysed by sonication. After centrifugation, the proteins were initially purified using a Ni^2+-affinity HisTrap column (GE Healthcare). Impurities were washed away with lysis buffer containing 20–40 mM imidazole, and Hsp90β was subsequently eluted with lysis buffer containing 300 mM imidazole. The purification process continued with size exclusion chromatography (SEC) using a Superdex-200 (16/600) column (GE Healthcare) and a running buffer of 50 mM Tris pH 7.5 at room temperature, 300 mM KCl. The purity of the fractions was confirmed by SDS-PAGE, and they were then concentrated. For the NMR experiments, Hsp90β was dialyzed against NMR buffer (50 mM potassium phosphate pD 7.5, 100 mM KCl, 2 mM DTT (98%, D10) in D2O) and subsequently frozen in liquid nitrogen.
The full-length Hsp90β was labeled using the Monolith His-Tag Labeling Kit RED-tris-NTA following the manufacturer's instructions (NanoTemper Technologies GmbH, Munich, Germany). The proteins were first diluted to a concentration of 8 nM in assay buffer (50 mM Tris–HCl, pH 7.4, containing 150 mM NaCl, 5% ethanol, and 10 mM MgCl2). To determine the Kd values, the proteins were mixed with the test compounds in a 1 : 1 ratio as stated in the manufacturers protocol. The final concentration of Hsp90β was 4 nM, with compounds added in the following ranges: 1000 μM to 5.86 μM for 8c; 312.5 μM to 0.15 μM for 13g and 125 μM to 3.91 μM for 1. Two independent Kd determinations were performed for compounds 8c and 13g. […] Next, Cdc37 (AR09008PUN, OriGene Technologies, Inc., Rockville, MD, USA) was acquired for the purpose of PPI inhibition evaluation between full-length Hsp90β and Cdc37. […] In all experiments the compounds were incubated with the proteins for 15 minutes in the dark at room temperature. The mixtures were then loaded into Monolith NT.115 Premium Capillaries (NanoTemper Technologies GmbH, Munich, Germany). Thermophoresis was induced at 1475 ± 15 nm and measured using a Monolith NT.115 pico instrument (NanoTemper Technologies GmbH, Munich, Germany). Measurements were conducted at ambient temperature (24–25 °C), with excitation power set to 20% and MST power set to 40%, and a laser on time of 5 seconds. To calculate the Kd values, the average fluorescence responses for each concentration were plotted against the logarithm of compound concentrate on using GraphPad Prism software (GraphPad Software, Inc., La Jolla, CA).

[2] = system: Ewing sarcoma cell line SK-N-MC; experiment: MTS cell viability (antiproliferative) assay in SK-N-MC; type: cell-based; settings: Homo sapiens, SK-N-MC, 72 hours, mean ± SD
Description: Hormone-positive breast cancer cell line MCF-7 (ATCC-HTB-22; ATCC) was grown in Dulbecco's Modified Eagle's Medium (DMEM), while Ewing sarcoma cell line SK-N-MC (a kind gift from Beat Schäfer) and THP-1 (ATCC-TIB-202; ATCC) cells were grown in Roswell Park Memorial Institute (RPMI) 1640. The medium was supplemented with 10% heat-inactivated fetal bovine serum (Gibco, Thermo Fisher Scientific, Waltham, MA, USA), 100 U per mL penicillin, 100 μg per mL streptomycin, and 2 mM L-glutamine (all from Sigma-Aldrich, St. Louis, MO, USA). All cell lines were incubated at 37 °C in a 5% CO2 atmosphere.
The antiproliferative activity of the compounds was evaluated against MCF-7 (ATCC-HTB-22; ATCC), SK-N-MC (a kind gift from Beat Schäfer) and THP-1 (ATCC-TIB-202; ATCC) cancer cell lines using the MTS assay (Promega, Madison, WI, USA). Cells were seeded in 96-well plates at a density of 2 × 10^4 cells per mL in 100 μL of growth medium for THP-1 and were treated with compounds and controls directly, while 3 × 10^3 cells per mL for MCF-7 and SK-N-MC were seeded in 100 μL of growth medium and allowed to adhere overnight following the treatment. In all cases the cells were treated with respective newly prepared compounds, positive controls (17-DMAG for MCF-7 and SK-N-MC; PU-H71 for THP-1) and a vehicle control (0.5% DMSO). The incubation time after treatment was 72 hours, then CellTiter96® Aqueous One Solution Reagent (Promega, Madison, WI, USA) was added to each well. Following a 3 hours incubation, absorbance was measured at 492 nm using BioTek's Synergy™ 4 Hybrid Microplate Reader (Winooski, VT, USA). The measurements were performed in two biological repetitions and each time the experiment was performed in a triplicate. The IC50 values, representing the concentration of inhibitor required for half-maximal inhibition, are the average of three independent experiments and were calculated using GraphPad Prism 9.5.0 software (San Diego, CA, USA).

[3] = system: SK-N-MC cells; experiment: Apoptosis assay, annexin V–PE/SytoxBlue staining, flow cytometry; type: cell-based
Description: Apoptosis of SK-N-MC cells was evaluated by detecting phosphatidylserines using R-phycoerythrin–annexin V conjugate (R-PE annexin V; Invitrogen, Carlsbad, CA, USA) and nucleic acids in dead cells using SytoxBlue Dead Cell Stain (Invitrogen, Carlsbad, CA, USA), according to the manufacturer's instructions. Briefly, 2.5 × 10^5 SK-N-MC cells were seeded in six-well plates. After 24 hours, cells were washed with PBS and treated with 8c and 13g in 10 and 20 μM concentrations for 24 and 48 hours. The medium with detached cells was then collected, and attached cells were harvested and combined with the detached cells. Following two washing steps with cold PBS, cells were resuspended in 100 μL annexin-binding buffer (Invitrogen, Carlsbad, CA, USA) containing 2.5 μL annexin V–R-PE solution and 750 nM SytoxBlue, and incubated in the dark for 15 minutes at room temperature. Before measurement, 200 μL of annexin-binding buffer was added. A minimum of 10 000 events were collected using a flow cytometer (Attune NxT; Invitrogen, Carlsbad, CA, USA). Annexin V (ANV)-/SYTOX Blue (SB)-indicates viable cells, ANV+/SB− indicates early apoptotic cells, ANV+/SB+ indicates late apoptotic cells, and ANV−/SB+ indicates necrotic cells.

Row | Compound | Kd [1] [µM] | IC50 [2] [µM] | proportion of apoptotic cells ([3]; 10 μM, 24 hours) [%] | proportion of apoptotic cells ([3]; 10 μM, 48 hours) [%] | proportion of apoptotic cells ([3]; 20 μM, 24 hours) [%] | proportion of apoptotic cells ([3]; 20 μM, 48 hours) [%] | induction of apoptosis (qualitative) ([3]; 10 μM and 20 μM, 24 and 48 hours)
1 | O=C(NCCOc1ccccc1)c1ccc(Nc2cc(N3CCNCC3)ncn2)cc1 [Compound 13g, N-(2-Phenoxyethyl)-4-((6-(piperazin-1-yl)pyrimidin-4-yl)amino)benzamide] | 73.3 | 20 ± 1.5 | 27 | 11.4 | 42.8 | 56.8 | 
2 | CN(CCOc1ccccc1)C(=O)c1csc(Nc2cc(N3CCNCC3)ncn2)n1 [Compound 8c, N-Methyl-N-(2-phenoxyethyl)-2-((6-(piperazin-1-yl)pyrimidin-4-yl)amino)thiazole-4-carboxamide] | 70.8 | 12.8 ± 0.9 |  |  | 87.5 | 87.7 | significantly induced apoptosis
